In series [1] the test system is in vitro grown Mycobacteria (M. tuberculosis). In words: QUM: Quantification of in vitro grown Mycobacteria (in vitro growth fluorescence assay). Format: cell-based. The settings on record: MIC, 80% bacterial growth inhibition, in vitro growth; for MIC: Mycobacterium tuberculosis, read-out: QUM. Summed up: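 Mycobacterium tuberculosis grown in vitro was quantified by fluorescence across compound dose responses. MIC is defined as the minimum concentration producing 80% growth inhibition.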

Series [2] concerns M. tuberculosis inside the host macrophage. In words: QIM: Quantification of Intracellular Mycobacteria (intracellular growth assay, phenotypic cell-based). The following applies: MIC, 80% bacterial growth inhibition, intracellular growth; for MIC: Mycobacterium tuberculosis, read-out: QIM. Summed up: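 Dose-response testing of intracellular mycobacterial replication in infected macrophages, a cell-based screening format; MIC is defined as the lowest concentration achieving 80% inhibition of bacterial growth.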

Converted amounts (≈) assume the structure as drawn. Where a name gives a salt, the structure may show the parent alone.

Broadly, the melting point is the temperature, or range, at which the solid turns liquid. `CCc1nc2cc(Cl)ccn2c1C(=O)NCc1ccc(N2CCN(c3ccc(F)cc3)CC2)cc1` (as salt: hydrochloride) [Compound 177, 7-Chloro-2-ethyl-N-(4-(4-(4-fluorophenyl)piperazin-1-yl)benzyl)imidazo[1,2-a]pyridine-3-carboxamide trihydrochloride] returned a melting point of 204.4 to 206.9 °C.
In turn, `CCc1nc2ccc(OC)cn2c1C(=O)NCc1ccc(N2CCN(c3ccc(F)cc3)CC2)cc1` [Compound 112, 2-Ethyl-N-(4-(4-(4-fluorophenyl)piperazin-1-yl)benzyl)-6-methoxyimidazo[1,2-a]pyridine-3-carboxamide] gave a melting point of 173.8 °C. In series [1], the MIC is < 1 µM.
Take `CCc1nc2ccc(Cl)cn2c1C(=O)NCc1ccc2oc(-c3ccc(OC(F)(F)F)cc3)nc2c1` [Compound 207, 6-Chloro-2-ethyl-N-((2-(4-(trifluoromethoxy)phenyl)benzo[d]oxazol-5-yl)methyl)imidazo[1,2-a]pyridine-3-carboxamide]: the MIC in series [2] and in series [1] was < 1 µM in each case.
On to `CCc1nc2cc(Cl)ccn2c1C(=O)NCc1ccc2oc(-c3ccc(OC(F)(F)F)cc3)nc2c1` [Compound 208, 7-Chloro-2-ethyl-N-((2-(4-(trifluoromethoxy)phenyl)benzo[d]oxazol-5-yl)methyl)imidazo[1,2-a]pyridine-3-carboxamide], for which the MIC in series [2] and in series [1] was < 1 µM in each case.
For `CCc1nc2cc(Cl)ccn2c1C(=O)NCc1ccc(N2CCCC2)cc1` [Compound 212, 7-Chloro-2-ethyl-N-(4-(pyrrolidin-1-yl)benzyl)imidazo[1,2-a]pyridine-3-carboxamide], the MIC in series [2] and in series [1] was < 1 µM throughout.
Turning to `CCc1nc2cc(Cl)ccn2c1C(=O)NCc1ccc(N2CC=CCC2)cc1` [Compound 213, 7-Chloro-N-(4-(5,6-dihydropyridin-1(2H)-yl)benzyl)-2-ethylimidazo[1,2-a]pyridine-3-carboxamide], the figures for the MIC in series [2] and in series [1] were 1 to 20 µM (≈ 0.395 to 7.9 µg/mL) and < 1 µM, respectively.
The like results for `CCc1nc2ccc(Cl)cn2c1C(=O)NCc1ccc(N2CCC(C)CC2)cc1` [Compound 214, 6-Chloro-2-ethyl-N-(4-(4-methylpiperidin-1-yl)benzyl)imidazo[1,2-a]pyridine-3-carboxamide] were, in that order, < 1 µM and < 1 µM.
The like results for `CCc1nc2cc(Cl)ccn2c1C(=O)NCc1ccc(N2CCC(C)CC2)cc1` [Compound 215, 7-Chloro-2-ethyl-N-(4-(4-methylpiperidin-1-yl)benzyl)imidazo[1,2-a]pyridine-3-carboxamide] were, in that order, < 1 µM and < 1 µM.
As for `CCc1nc2ccc(Cl)cn2c1C(=O)NCc1ccc(N2CCCCCC2)cc1` [Compound 221, N-(4-(Azepan-1-yl)benzyl)-6-chloro-2-ethylimidazo[1,2-a]pyridine-3-carboxamide], the MIC in series [2] and in series [1] was < 1 µM each time.
For the compound `CCc1nc2cc(Cl)ccn2c1C(=O)NCc1ccc(N2CCCCCC2)cc1` [Compound 222, N-(4-(Azepan-1-yl)benzyl)-7-chloro-2-ethylimidazo[1,2-a]pyridine-3-carboxamide], the MIC in series [2] and in series [1] was < 1 µM in each case.
On to `CCc1nc2ccc(Cl)cn2c1C(=O)N1CCC(OCc2ccc(OC(F)(F)F)cc2)CC1` [Compound 230, (6-Chloro-2-ethylimidazo[1,2-a]pyridin-3-yl)(4-(4-(trifluoromethoxy)benzyloxy)piperidin-1-yl)methanone], for which the MIC in series [2] and in series [1] was > 20 µM in each case.
Take `CCc1nc2ccc(Cl)cn2c1C(=O)NCc1ccn(-c2ccc(OC(F)(F)F)cc2)n1` [Compound 231, 6-Chloro-2-ethyl-N-((1-(4-(trifluoromethoxy)phenyl)-1H-pyrazol-3-yl)methyl) imidazo[1,2-a]pyridine-3-carboxamide]: the MIC in series [2] and in series [1] was < 1 µM throughout.
Regarding `CCc1nc2cc(Cl)ccn2c1C(=O)NCc1ccn(-c2ccc(OC(F)(F)F)cc2)n1` [Compound 232, 7-Chloro-2-ethyl-N-((1-(4-(trifluoromethoxy)phenyl)-1H-pyrazol-3-yl)methyl) imidazo[1,2-a]pyridine-3-carboxamide], in series [2], the “QIM (μM)” value was “++ (++ indicates between 1-20 uM)”. In addition, the “QUM (μM)” value in series [1] was “++ (++ indicates between 1-20 uM)”.
With `CCc1nc2ccc(Cl)cn2c1C(=O)NCc1ccn(-c2ccc(C(F)(F)F)cc2)n1` [Compound 233, 6-Chloro-2-ethyl-N-4-((1-(4-(trifluoromethyl)phenyl)-1H-pyrazol-3-yl)methyl)imidazo[1,2-a]pyridine-3-carboxamide], the MIC in series [2] and in series [1] was > 20 µM each time.
In the case of `CCc1nc2cc(Cl)ccn2c1C(=O)NCc1ccn(-c2ccc(C(F)(F)F)cc2)n1` [Compound 234, 7-Chloro-2-ethyl-N-((1-(4-(trifluoromethyl)phenyl)-1H-pyrazol-3-yl)methyl)imidazo[1,2-a]pyridine-3-carboxamide], the MIC in series [2] and in series [1] was 1 to 20 µM (≈ 0.448 to 8.96 µg/mL) in each case.
Regarding `CCc1nc2ccc(Cl)cn2c1C(=O)NCc1ccn(-c2ccc(F)cc2)n1` [Compound 235, 6-Chloro-2-ethyl-N-((1-(4-fluorophenyl)-1H-pyrazol-3-yl)methyl)imidazo[1,2-a]pyridine-3-carboxamide], the MIC in series [2] and in series [1] was 1 to 20 µM (≈ 0.398 to 7.96 µg/mL) in each case.
Regarding `CCc1nc2cc(Cl)ccn2c1C(=O)NCc1ccn(-c2ccc(F)cc2)n1` [Compound 236, 7-Chloro-2-ethyl-N-((1-(4-fluorophenyl)-1H-pyrazol-3-yl)methyl)imidazo[1,2-a]pyridine-3-carboxamide], the figures for the MIC in series [2] and in series [1] were > 20 µM and 1 to 20 µM (≈ 0.398 to 7.96 µg/mL), respectively.
The like results for `CCc1nc2ccc(Cl)cn2c1C(=O)NCC1CCCc2c1cnn2-c1ccc(OC(F)(F)F)cc1` (stereo not drawn) [Compound 237, 6-Chloro-2-ethyl-N-((1-(4-(trifluoromethoxy)phenyl)-4,5,6,7-tetrahydro-1,1-indazol-4-yl)methyl)imidazo[1,2-a]pyridine-3-carboxamide] were, in that order, > 20 µM and > 20 µM.
Regarding `CCc1nc2ccc(Cl)cn2c1C(=O)NCC1CCCc2c1cnn2-c1ccc(F)cc1` (stereo not drawn) [Compound 238, 6-Chloro-2-ethyl-N-((1-(4-fluorophenyl)-4,5,6,7-tetrahydro-1H-indazol-4-yl)methyl) imidazo[1,2-a]pyridine-3-carboxamide], the MIC in series [2] and in series [1] was > 20 µM in each case.
Take `CCc1nc2ccc(Cl)cn2c1CNc1ccc(OC(F)(F)F)cc1` [Compound 240, N-((6-Chloro-2-ethylimidazo[1,2-a]pyridin-3-yl)methyl)-4-(trifluoromethoxy)aniline]: the MIC in series [2] and in series [1] was > 20 µM in each case.
As for `CCc1nc2cc(Cl)ccn2c1-c1nnc(CN2CCN(c3ccc(OC(F)(F)F)cc3)CC2)o1` [Compound 244, 2-(7-Chloro-2-ethylimidazo[1,2-a]pyridin-3-yl)-5-((4-(4-(trifluoromethoxy)phenyl)piperazin-1-yl)methyl)-1,3,4-oxadiazole], the MIC in series [2] and in series [1] was 1 to 20 µM (≈ 0.507 to 10.1 µg/mL) each time.
For the compound `CCc1nc2ccc(F)cn2c1C(=O)NCc1ccc(OCc2ccc(OC(F)(F)F)cc2)cc1` [Compound 258, 2-Ethyl-6-fluoro-N-(4-(4-(trifluoromethoxy)benzyloxy)benzyl)imidazo[1,2-a]pyridine-3-carboxamide], the MIC in series [2] and in series [1] was < 1 µM in each case.
Turning to `CCc1nc2ccccn2c1C(=O)NCc1ccc(N(C)Cc2ccc(OC(F)(F)F)cc2)cc1` [Compound 263, 2-Ethyl-N-(4-(methyl(4-(trifluoromethoxy)benzyl)amino)benzyl)imidazo[1,2-a]pyridine-3-carboxamide], the MIC in series [2] and in series [1] was < 1 µM throughout.
With `CCc1nc2cc(Cl)ccn2c1C(=O)NCc1ccc(N2CCC(=O)CC2)cc1` [Compound 269, 7-Chloro-2-ethyl-N-(4-(4-oxopiperidin-1-yl)benzyl)imidazo[1,2-a]pyridine-3-carboxamide], the MIC in series [2] was 1 to 20 µM (≈ 0.411 to 8.22 µg/mL); in series [1] it was < 1 µM.
The like results for `CCc1nc2ccc(Cl)cn2c1C(=O)NCc1ccc(N2CCCCC2C)cc1` (stereo not drawn) [Compound 272, 6-chloro-2-ethyl-N-(4-(2-methylpiperidin-1-yl)benzyl)imidazo[1,2-a]pyridine-3-carboxamide] were, in that order, < 1 µM and < 1 µM.
Regarding `CCc1nc2ccc(Cl)cn2c1C(=O)NCc1ccc(N2CCC(COC(C)C)CC2)cc1` [Compound 291, 6-Chloro-2-ethyl-N-(4-(4-(isopropoxymethyl)piperidin-1-yl)benzyl)imidazo[1,2-a]pyridine-3-carboxamide], the MIC in series [2] and in series [1] was < 1 µM in each case.
In the case of `CCc1nc2cc(Cl)ccn2c1C(=O)NCc1ccc(N2CCC(COC(C)C)CC2)cc1` [Compound 292, 7-Chloro-2-ethyl-N-(4-(4-(isopropoxymethyl)piperidin-1-yl)benzyl)imidazo[1,2-a]pyridine-3-carboxamide], the MIC in series [2] and in series [1] was < 1 µM in each case.
Regarding `CCc1nc2ccc(F)cn2c1C(=O)NCc1ccc(N2CCOCC2)cc1` [Compound 316, 2-Ethyl-6-fluoro-N-(4-morpholinobenzyl)imidazo[1,2-a]pyridine-3-carboxamide], the MIC in series [2] and in series [1] was 1 to 20 µM (≈ 0.382 to 7.65 µg/mL) in each case.
In the case of `CCc1nc2cc(N3CCN(c4ccc(F)cc4)CC3)ccn2c1C(=O)NCc1ccc(N2CCOCC2)cc1` [Compound 329, 2-Ethyl-7-(4-(4-fluorophenyl)piperazin-1-yl)-N-(4-morpholinobenzyl)imidazo[1,2-a]pyridine-3-carboxamide], the MIC in series [2] and in series [1] was > 20 µM throughout.
